Test results published in ChEMBL document CHEMBL4028801, “A multifactorial approach to hepatobiliary transporter assessment enables improved therapeutic compound development” (Toxicol Sci, 2013).

Assays:
[1] = target: ATP-binding cassette sub-family C member 2 (Homo sapiens, UniProt Q92887); assay: Inhibition of human MRP2 overexpressed in Sf9 cell membrane vesicles assessed as uptake of [3H]-estradiol-17beta-D-glucuronide in presence of ATP and GSH measured after 20 mins by membrane vesicle transport assay
ATP-binding cassette sub-family C member 2, sequence (Q92887 whole entry): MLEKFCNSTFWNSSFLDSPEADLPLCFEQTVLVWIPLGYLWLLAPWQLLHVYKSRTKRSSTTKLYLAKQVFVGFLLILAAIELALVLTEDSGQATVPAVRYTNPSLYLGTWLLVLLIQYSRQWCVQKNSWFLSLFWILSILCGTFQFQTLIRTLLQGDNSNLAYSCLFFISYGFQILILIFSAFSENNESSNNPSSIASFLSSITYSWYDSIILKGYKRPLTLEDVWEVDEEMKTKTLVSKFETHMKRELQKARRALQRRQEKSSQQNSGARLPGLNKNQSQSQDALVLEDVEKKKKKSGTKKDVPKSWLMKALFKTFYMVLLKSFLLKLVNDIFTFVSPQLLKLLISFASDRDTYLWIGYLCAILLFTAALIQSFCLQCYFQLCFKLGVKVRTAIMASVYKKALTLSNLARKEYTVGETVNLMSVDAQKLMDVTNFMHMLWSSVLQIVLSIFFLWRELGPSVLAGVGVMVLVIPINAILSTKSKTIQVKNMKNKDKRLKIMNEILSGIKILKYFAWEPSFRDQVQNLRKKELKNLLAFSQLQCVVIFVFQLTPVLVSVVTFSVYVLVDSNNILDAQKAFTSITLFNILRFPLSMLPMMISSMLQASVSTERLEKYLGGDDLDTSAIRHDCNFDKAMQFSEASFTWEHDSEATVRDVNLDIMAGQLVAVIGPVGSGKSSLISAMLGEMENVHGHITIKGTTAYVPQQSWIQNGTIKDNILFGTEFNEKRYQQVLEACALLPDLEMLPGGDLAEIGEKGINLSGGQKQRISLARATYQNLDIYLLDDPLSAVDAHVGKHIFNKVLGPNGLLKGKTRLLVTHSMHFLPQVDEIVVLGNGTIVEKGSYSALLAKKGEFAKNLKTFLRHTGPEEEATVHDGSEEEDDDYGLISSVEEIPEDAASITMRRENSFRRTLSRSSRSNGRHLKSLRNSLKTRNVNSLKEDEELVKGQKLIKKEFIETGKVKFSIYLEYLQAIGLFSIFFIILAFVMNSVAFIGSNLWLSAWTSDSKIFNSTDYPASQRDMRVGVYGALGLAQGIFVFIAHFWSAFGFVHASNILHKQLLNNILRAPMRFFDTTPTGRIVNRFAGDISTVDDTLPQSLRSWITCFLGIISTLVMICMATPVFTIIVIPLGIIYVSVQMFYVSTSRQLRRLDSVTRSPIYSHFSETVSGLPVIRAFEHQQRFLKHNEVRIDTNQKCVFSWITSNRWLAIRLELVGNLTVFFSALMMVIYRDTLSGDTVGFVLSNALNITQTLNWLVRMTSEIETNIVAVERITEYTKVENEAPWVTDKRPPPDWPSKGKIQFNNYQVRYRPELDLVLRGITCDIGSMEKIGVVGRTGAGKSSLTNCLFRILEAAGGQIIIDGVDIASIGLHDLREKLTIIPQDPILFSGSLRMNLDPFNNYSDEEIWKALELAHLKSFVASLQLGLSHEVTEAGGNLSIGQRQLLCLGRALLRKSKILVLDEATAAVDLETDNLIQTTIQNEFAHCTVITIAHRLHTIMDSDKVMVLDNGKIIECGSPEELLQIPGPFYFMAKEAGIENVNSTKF

[2] = AUC in human at 50 ug, sc BID/TID co-treated with 50 to 500 ug, sc TID of sandostatin LAR measured after 8 hrs; format: ADME, organism-based; design: dose 50 ug, time < 8 hr, route subcutaneous; settings: in vivo
[3] = Ratio of drug concentration at steady state in human at 50 ug, sc BID/TID co-treated with 50 to 500 ug, sc TID of sandostatin LAR measured after 8 hrs to IC50 for human BSEP overexpressed in Sf9 insect cells; format: ADME, organism-based; settings: in vivo
Bile salt export pump = Bile salt export pump (Homo sapiens, UniProt O95342); assay: Inhibition of human BSEP overexpressed in Sf9 cell membrane vesicles assessed as uptake of [3H]-taurocholate in presence of ATP measured after 15 to 20 mins by membrane vesicle transport assay; format: ADME, cell-based
Bile salt export pump, sequence (O95342 whole entry): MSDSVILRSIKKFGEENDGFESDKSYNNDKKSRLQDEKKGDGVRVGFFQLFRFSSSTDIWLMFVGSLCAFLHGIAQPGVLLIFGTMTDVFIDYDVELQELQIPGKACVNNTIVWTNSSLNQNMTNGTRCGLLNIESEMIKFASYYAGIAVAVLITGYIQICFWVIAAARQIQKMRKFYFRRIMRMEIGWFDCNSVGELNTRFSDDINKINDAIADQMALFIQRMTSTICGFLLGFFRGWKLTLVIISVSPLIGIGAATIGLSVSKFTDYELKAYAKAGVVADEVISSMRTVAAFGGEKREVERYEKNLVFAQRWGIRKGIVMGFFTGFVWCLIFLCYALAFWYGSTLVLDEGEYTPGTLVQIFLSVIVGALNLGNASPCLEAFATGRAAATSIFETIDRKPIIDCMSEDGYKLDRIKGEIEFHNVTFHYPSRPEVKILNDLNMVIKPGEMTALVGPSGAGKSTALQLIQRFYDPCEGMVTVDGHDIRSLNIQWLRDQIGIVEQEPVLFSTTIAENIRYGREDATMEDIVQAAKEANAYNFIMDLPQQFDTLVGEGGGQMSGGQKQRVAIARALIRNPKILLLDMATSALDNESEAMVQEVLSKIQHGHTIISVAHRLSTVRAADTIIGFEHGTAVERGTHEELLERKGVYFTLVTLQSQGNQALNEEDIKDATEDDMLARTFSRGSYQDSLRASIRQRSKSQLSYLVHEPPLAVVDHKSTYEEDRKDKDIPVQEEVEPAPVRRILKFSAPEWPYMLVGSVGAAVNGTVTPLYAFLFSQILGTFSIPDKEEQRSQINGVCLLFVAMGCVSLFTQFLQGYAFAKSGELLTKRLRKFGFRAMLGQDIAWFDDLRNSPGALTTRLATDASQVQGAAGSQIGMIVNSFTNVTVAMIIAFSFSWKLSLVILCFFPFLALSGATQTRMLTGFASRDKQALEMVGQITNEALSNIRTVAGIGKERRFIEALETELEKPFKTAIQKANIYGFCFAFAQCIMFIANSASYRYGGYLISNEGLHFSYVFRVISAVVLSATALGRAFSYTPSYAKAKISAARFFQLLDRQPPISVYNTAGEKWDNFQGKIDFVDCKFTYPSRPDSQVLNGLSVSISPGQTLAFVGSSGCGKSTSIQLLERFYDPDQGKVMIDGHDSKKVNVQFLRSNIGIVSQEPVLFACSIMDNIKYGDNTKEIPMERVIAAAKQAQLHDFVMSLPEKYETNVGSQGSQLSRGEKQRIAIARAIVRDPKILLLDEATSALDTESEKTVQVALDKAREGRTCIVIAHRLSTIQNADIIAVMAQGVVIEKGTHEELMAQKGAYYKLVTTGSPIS

[4] = target: ATP-binding cassette sub-family C member 3 (Homo sapiens, UniProt O15438); assay: Inhibition of human MRP3 overexpressed in Sf9 insect cell membrane vesicles assessed as uptake of [3H]-estradiol-17beta-D-glucuronide in presence of ATP and GSH measured after 10 mins by membrane vesicle transport assay; format: ADME, cell-based
ATP-binding cassette sub-family C member 3, sequence (O15438 whole entry): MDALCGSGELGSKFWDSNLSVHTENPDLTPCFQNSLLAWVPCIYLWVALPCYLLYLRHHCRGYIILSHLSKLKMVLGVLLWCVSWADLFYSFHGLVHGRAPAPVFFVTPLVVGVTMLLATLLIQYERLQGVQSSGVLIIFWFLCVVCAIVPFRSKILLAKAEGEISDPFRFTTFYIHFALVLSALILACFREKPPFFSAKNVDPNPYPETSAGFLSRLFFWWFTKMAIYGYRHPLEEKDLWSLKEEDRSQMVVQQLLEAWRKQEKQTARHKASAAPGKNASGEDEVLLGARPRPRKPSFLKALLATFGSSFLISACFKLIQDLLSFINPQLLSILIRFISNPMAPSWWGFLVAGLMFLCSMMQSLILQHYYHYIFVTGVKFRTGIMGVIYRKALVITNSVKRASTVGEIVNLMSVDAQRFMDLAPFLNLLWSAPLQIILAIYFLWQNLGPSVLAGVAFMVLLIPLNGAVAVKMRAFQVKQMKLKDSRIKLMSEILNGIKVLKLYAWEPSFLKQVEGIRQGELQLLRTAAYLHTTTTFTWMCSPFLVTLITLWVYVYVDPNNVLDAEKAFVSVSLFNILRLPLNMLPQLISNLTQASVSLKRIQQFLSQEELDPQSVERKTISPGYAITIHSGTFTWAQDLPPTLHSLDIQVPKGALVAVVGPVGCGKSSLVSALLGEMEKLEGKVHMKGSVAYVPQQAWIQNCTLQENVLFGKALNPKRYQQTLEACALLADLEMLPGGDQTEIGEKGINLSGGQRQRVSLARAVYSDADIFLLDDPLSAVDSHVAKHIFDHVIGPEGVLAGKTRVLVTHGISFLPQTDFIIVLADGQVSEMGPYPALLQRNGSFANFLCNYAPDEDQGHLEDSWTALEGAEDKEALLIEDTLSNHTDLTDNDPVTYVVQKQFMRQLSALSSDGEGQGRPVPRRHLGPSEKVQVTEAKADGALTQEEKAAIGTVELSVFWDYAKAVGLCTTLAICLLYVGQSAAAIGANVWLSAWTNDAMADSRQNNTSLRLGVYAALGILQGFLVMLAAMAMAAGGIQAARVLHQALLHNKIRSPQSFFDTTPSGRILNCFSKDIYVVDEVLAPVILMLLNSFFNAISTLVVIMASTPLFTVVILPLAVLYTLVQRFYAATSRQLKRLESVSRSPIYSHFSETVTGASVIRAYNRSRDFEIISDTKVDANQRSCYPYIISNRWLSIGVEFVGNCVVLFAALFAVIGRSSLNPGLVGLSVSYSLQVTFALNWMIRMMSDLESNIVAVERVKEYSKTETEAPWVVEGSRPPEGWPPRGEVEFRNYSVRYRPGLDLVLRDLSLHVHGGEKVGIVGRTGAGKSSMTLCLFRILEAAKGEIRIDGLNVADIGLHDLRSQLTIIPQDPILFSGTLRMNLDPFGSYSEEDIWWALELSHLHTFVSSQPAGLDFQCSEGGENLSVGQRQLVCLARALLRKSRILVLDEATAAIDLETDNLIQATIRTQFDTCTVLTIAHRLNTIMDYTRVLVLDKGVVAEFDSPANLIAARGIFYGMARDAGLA

[5] = Drug concentration at steady state in human at 50 ug, sc BID/TID co-treated with 50 to 500 ug, sc TID of sandostatin LAR measured after 8 hrs; format: ADME, organism-based; settings: in vivo, read-out: Css
[6] = target: T1, ATP-binding cassette sub-family C member 4 (Homo sapiens, UniProt O15439); assay: Inhibition of human MRP4 overexpressed in Sf9 cell membrane vesicles assessed as uptake of [3H]-estradiol-17beta-D-glucuronide in presence of ATP and GSH measured after 20 mins by membrane vesicle transport assay; format: ADME, cell-based
T1 sequence (O15439 whole entry): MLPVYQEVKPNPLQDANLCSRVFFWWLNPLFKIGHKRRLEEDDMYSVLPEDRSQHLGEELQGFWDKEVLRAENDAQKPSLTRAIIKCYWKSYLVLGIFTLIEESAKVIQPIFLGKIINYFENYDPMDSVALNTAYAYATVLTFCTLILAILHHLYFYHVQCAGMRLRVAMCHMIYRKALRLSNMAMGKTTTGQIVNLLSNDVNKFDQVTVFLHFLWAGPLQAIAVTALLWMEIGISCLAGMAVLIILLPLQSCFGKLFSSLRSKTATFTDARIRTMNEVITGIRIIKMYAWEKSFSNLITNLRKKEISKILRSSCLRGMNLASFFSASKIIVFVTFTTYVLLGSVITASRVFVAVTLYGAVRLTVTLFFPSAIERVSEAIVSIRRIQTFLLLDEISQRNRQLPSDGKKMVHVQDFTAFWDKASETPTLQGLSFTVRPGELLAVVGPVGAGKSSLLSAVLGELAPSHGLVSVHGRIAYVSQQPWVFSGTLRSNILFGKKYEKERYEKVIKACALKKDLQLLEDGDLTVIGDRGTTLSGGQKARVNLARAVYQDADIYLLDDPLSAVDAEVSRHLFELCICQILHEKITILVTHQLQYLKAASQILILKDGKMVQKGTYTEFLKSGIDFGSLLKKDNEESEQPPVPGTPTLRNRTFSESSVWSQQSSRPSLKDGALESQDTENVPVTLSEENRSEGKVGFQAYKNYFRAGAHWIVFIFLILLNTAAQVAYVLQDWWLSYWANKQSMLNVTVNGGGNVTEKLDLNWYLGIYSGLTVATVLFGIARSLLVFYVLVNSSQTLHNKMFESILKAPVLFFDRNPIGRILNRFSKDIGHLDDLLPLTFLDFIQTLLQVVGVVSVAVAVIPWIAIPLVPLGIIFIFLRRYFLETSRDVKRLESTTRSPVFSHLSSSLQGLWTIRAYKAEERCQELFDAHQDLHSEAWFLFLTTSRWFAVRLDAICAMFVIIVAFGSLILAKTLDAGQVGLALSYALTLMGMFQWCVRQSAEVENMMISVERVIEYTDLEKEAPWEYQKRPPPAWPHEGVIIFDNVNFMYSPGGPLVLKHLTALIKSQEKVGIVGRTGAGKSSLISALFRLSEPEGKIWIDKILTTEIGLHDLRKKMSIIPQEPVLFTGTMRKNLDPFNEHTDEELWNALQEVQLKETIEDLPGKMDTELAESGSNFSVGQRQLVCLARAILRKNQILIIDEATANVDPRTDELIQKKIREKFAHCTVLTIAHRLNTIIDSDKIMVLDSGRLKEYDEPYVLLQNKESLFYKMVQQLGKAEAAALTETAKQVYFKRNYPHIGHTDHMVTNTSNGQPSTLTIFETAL

[7] = AUC in human at 135 to 175 mg/m2, iv administered as infusion for 3 or 24 hrs measured after 1 hr; format: ADME, organism-based; design: time < 1 hr, route intravenous; settings: in vivo
Homo sapiens = assay: Drug concentration at steady state in human at 135 to 175 mg/m2, iv administered as infusion for 3 or 24 hrs measured after 1 hr; format: ADME, organism-based; settings: in vivo
[8] = AUC in human at 200 mg, po TID after 8 hrs; format: ADME, organism-based; design: time < 8 hr, dose 200 mg, route oral; settings: in vivo
[9] = Ratio of drug concentration at steady state in human at 200 mg, po TID after 8 hrs to IC50 for human BSEP overexpressed in Sf9 insect cells; format: ADME, organism-based; settings: in vivo
[10] = Drug concentration at steady state in human at 200 mg, po TID after 8 hrs; format: ADME, organism-based; settings: in vivo, read-out: Css
[11] = Ratio of drug concentration at steady state in human at 600 mg administered twice weekly followed by 600 mg administered once in a week measured after 84 hrs to IC50 for human BSEP overexpressed in Sf9 insect cells; format: ADME; settings: in vivo
[12] = AUC in human at 600 mg administered twice weekly followed by 600 mg administered once in a week measured after 84 hrs; format: ADME; design: dose 600 mg, time < 84 hr; settings: in vivo
[13] = Ratio of drug concentration at steady state in human at 600 mg administered twice weekly followed by 600 mg administered once in a week measured after 84 hrs to IC50 for human MRP4 overexpressed in Sf9 insect cells; format: ADME; settings: in vivo
[14] = Drug concentration at steady state in human at 600 mg administered twice weekly followed by 600 mg administered once in a week measured after 84 hrs; format: ADME; settings: in vivo, read-out: Css
[15] = Ratio of drug concentration at steady state in human at 600 mg administered twice weekly followed by 600 mg administered once in a week measured after 84 hrs to IC50 for human MRP2 overexpressed in Sf9 insect cells; format: ADME; settings: in vivo
[16] = Ratio of drug concentration at steady state in human at 600 mg administered twice weekly followed by 600 mg administered once in a week measured after 84 hrs to IC50 for human MRP3 overexpressed in Sf9 insect cells; format: ADME; settings: in vivo
[17] = Drug concentration at steady state in human at 200 to 600 mg, po QD after 24 hrs; format: ADME, organism-based; settings: in vivo, read-out: Css
[18] = Ratio of drug concentration at steady state in human at 200 to 600 mg, po QD after 24 hrs to IC50 for human MRP3 overexpressed in Sf9 insect cells; format: ADME, organism-based; settings: in vivo
[19] = AUC in human at 200 to 600 mg, po QD after 24 hrs; format: ADME, organism-based; settings: in vivo
[20] = Ratio of drug concentration at steady state in human at 200 to 600 mg, po QD after 24 hrs to IC50 for human BSEP overexpressed in Sf9 insect cells; format: ADME, organism-based; settings: in vivo
[21] = Ratio of drug concentration at steady state in human at 200 to 600 mg, po QD after 24 hrs to IC50 for human MRP4 overexpressed in Sf9 insect cells; format: ADME, organism-based; settings: in vivo

Structure (SMILES): CC(=O)O.C[C@@H](O)[C@@H]1NC(=O)[C@H](CCCCN)NC(=O)[C@@H](Cc2c[nH]c3ccccc23)NC(=O)[C@H](Cc2ccccc2)NC(=O)[C@@H](NC(=O)[C@H](N)Cc2ccccc2)CSSC[C@@H](C(=O)N[C@H](CO)[C@@H](C)O)NC1=O [OCTREOTIDE ACETATE]
- IC50 [1]: > 133 µM
- AUC at 8 h [2]: 42.2 µM·h
- Ratio [3]: 0.565
- IC50 (Bile salt export pump): 9.34 µM
- IC50 [4]: > 133 µM
- concentration at 8 h [5]: 5.28 µM
- IC50 [6]: > 133 µM

Structure (SMILES): CC(=O)O[C@H]1C(=O)[C@@]2(C)[C@H]([C@H](OC(=O)c3ccccc3)[C@]3(O)C[C@H](OC(=O)[C@H](O)[C@@H](NC(=O)c4ccccc4)c4ccccc4)C(C)=C1C3(C)C)[C@]1(OC(C)=O)CO[C@@H]1C[C@@H]2O [PACLITAXEL]
- IC50 [1]: > 133 µM
- AUC at 1 h [7]: 14.8 µM·h
- IC50 [4]: > 133 µM
- IC50 [6]: > 133 µM
- Css (Homo sapiens): 14.759 µM

Structure (SMILES): CC[C@@H]([C@H](C)O)n1ncn(-c2ccc(N3CCN(c4ccc(OC[C@@H]5CO[C@@](Cn6cncn6)(c6ccc(F)cc6F)C5)cc4)CC3)cc2)c1=O [POSACONAZOLE]
- IC50 [1]: > 133 µM
- AUC at 8 h [8]: 35.2 µM·h
- Ratio [9]: 0.544
- IC50 (Bile salt export pump): 8.1 µM
- concentration at 8 h [10]: 4.41 µM
- IC50 [4]: > 133 µM
- IC50 [6]: > 133 µM

Structure (SMILES): CO[C@H]1/C=C/O[C@@]2(C)Oc3c(C)c(O)c4c(O)c(c(/C=N/N5CCN(C6CCCC6)CC5)c(O)c4c3C2=O)NC(=O)/C(C)=C\C=C\[C@H](C)[C@H](O)[C@@H](C)[C@@H](O)[C@@H](C)[C@H](OC(C)=O)[C@@H]1C [RIFAPENTINE]
- IC50 [1]: 16.3 µM
- Ratio [11]: 0.474
- AUC at 84 h [12]: 395 µM·h
- Ratio [13]: 0.131
- concentration at 84 h [14]: 4.7 µM
- Ratio [15]: 0.288
- IC50 (Bile salt export pump): 9.91 µM
- IC50 [4]: 80.9 µM
- Ratio [16]: 0.058
- IC50 [6]: 35.9 µM

Structure (SMILES): Cc1c(C)c2c(c(C)c1O)CCC(C)(COc1ccc(CC3SC(=O)NC3=O)cc1)O2 (configuration not stated) [TROGLITAZONE]
- concentration at 24 h [17]: 0.939 µM
- Ratio [18]: 0.03
- IC50 (Bile salt export pump): 3 µM
- IC50 [4]: 31 µM
- AUC at 24 h [19]: 22.5 µM·h
- IC50 [6]: 61 µM
- Ratio [20]: 0.313
- Ratio [21]: 0.015
